These results are taken from ChEMBL document CHEMBL4507276 (2021).

The inhibition is the change of the read-out against control, counted positive when it falls.

In data set [1] the target is 5-hydroxytryptamine receptor 6 (Homo sapiens) (UniProt P50406). The following applies: Compound concentration 10.0 uM.
The target of data set [2] is Protein kinase C epsilon type (Homo sapiens) (UniProt Q02156). The following applies: Compound concentration 1000.0 nM.
Data set [3] addresses L-type Ca2+ channel (DHP site), Cav1.2 alpha-1C (Rattus norvegicus, UniProt P22002). The data set can be described thus: CA+/DHPSI/RA Eurofins-Panlabs selectivity data (BI). The following applies: compound concentration 10 uM, read-out: % Ctrl.
For data set [4], the target named is Mu-type opioid receptor (Homo sapiens) (UniProt P35372). The data set can be described thus: MU/H Cerep selectivity data (BI). The following applies: Compound concentration 20.0 uM.
In data set [5] the target is Sodium-dependent dopamine transporter (Homo sapiens, UniProt Q01959). The data set can be described thus: DATRANS/H Eurofins-Panlabs selectivity data (BI). The following applies: Compound concentration 10.0 uM.
The target in data set [6] is Cyclin-dependent kinase 5/CDK5 activator 1 (Homo sapiens) (UniProt Q00535+Q15078). Nature of the data set: CDK5/P25 Invitrogen selectivity data (BI). It is filed as protein-complex assay. The following applies: Compound concentration 3.0 uM.
Data set [7] has as its target Proto-oncogene tyrosine-protein kinase ROS (Homo sapiens) (UniProt P08922). Nature of the data set: ROS1 Invitrogen selectivity data (BI). The following applies: Compound concentration 3.0 uM.
Data set [8] deals with 3-phosphoinositide-dependent protein kinase 1 (Homo sapiens) (UniProt O15530). Nature of the data set: PDK1DIRECT Invitrogen selectivity data (BI). The following applies: Compound concentration 3.0 uM.
For data set [9], the target named is Histamine H4 receptor (Homo sapiens) (UniProt Q9H3N8). Nature of the data set: H4/H AG Cerep selectivity data (BI). The following applies: filed as agonist, Compound concentration 20.0 uM.
The test system of data set [10] is Serine/threonine-protein kinase B-raf (Homo sapiens), P15056 [V600E]. The data set can be described thus: BRAF V599E Invitrogen selectivity data (BI). The following applies: Compound concentration 3.0 uM.
The target in data set [11] is T1, Ephrin type-A receptor 1 (Homo sapiens) (UniProt P21709).
T1 sequence (whole entry): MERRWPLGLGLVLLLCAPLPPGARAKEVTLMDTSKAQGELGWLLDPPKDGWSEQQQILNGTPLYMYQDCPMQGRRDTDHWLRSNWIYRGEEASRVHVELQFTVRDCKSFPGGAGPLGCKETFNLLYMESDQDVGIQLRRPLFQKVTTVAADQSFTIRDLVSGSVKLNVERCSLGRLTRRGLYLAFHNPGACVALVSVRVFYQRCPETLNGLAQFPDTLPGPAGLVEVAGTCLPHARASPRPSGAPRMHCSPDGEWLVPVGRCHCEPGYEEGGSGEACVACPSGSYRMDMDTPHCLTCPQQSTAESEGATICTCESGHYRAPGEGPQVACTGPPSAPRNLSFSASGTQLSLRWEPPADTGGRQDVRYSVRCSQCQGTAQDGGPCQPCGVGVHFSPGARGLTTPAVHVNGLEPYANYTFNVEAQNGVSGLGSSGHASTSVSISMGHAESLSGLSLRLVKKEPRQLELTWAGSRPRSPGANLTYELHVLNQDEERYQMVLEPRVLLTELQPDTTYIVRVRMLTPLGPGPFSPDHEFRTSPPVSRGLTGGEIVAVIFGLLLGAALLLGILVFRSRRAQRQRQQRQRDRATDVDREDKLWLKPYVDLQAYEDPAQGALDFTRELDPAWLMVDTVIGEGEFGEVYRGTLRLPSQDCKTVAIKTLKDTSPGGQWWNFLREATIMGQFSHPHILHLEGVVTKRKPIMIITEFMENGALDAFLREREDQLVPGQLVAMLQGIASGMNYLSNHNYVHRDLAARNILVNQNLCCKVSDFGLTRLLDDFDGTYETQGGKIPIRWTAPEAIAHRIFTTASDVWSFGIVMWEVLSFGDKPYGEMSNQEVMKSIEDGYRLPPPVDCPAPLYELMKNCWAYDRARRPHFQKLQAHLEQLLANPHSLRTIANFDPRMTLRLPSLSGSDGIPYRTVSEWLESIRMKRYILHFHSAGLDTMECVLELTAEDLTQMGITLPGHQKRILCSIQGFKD
Nature of the data set: EPHA1 Invitrogen selectivity data (BI). The following applies: Compound concentration 3.0 uM.

The target of data set [12] is T2, Muscarinic acetylcholine receptor M1 (Homo sapiens) (UniProt P11229).
T2 sequence (whole entry): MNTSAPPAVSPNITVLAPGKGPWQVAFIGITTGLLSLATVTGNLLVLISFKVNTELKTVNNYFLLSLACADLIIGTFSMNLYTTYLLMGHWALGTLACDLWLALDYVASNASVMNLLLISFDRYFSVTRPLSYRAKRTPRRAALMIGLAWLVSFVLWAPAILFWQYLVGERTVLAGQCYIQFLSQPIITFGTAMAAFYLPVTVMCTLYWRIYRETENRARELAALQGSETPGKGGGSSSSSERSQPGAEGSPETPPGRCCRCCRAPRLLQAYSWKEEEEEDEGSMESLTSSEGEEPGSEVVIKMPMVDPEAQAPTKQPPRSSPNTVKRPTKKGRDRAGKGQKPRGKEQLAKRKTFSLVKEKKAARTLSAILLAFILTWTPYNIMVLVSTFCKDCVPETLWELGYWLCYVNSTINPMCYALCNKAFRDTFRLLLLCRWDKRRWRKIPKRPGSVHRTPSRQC
Nature of the data set: M1/HU Eurofins-Panlabs selectivity data (BI). The following applies: Compound concentration 10.0 uM.

In data set [13] the target is Cyclin-dependent kinase 2/cyclin A (Homo sapiens) (UniProt P24941+P20248+P78396). Nature of the data set: CDK2/CYCLINA Invitrogen selectivity data (BI). It is filed as protein-complex assay. The following applies: Compound concentration 3.0 uM.
The target of data set [14] is Vascular endothelial growth factor receptor 1 (Homo sapiens) (UniProt P17948). Nature of the data set: FLT-1(VEGFR1)_CE Cerep selectivity data (BI). The following applies: Compound concentration 20.0 uM.
Data set [15] deals with Bombesin receptor subtype-3 (Homo sapiens) (UniProt P32247). The data set can be described thus: BB3H_AGON Cerep selectivity data (BI). The following applies: filed as agonist, Compound concentration 20.0 uM.
Data set [16] has as its system Mast/stem cell growth factor receptor Kit (Homo sapiens), P10721 [T670I]. Nature of the data set: KIT T670I Invitrogen selectivity data (BI). The following applies: Compound concentration 3.0 uM.
Data set [17] has as its target L-type Ca2+ channel (diltiazem site), Cav1.2 alpha-1C (Rattus norvegicus, UniProt P22002). The data set can be described thus: CA+/DILSI/R Cerep selectivity data (BI). More on the design: mode of action inhibitor. The following applies: rat brain, probe [3H]diltiazem, compound concentration 20 uM, read-out: % Ctrl.
The target of data set [18] is Receptor tyrosine-protein kinase erbB-4 (Homo sapiens) (UniProt Q15303). Nature of the data set: ERBB4 Invitrogen selectivity data (BI). The following applies: Compound concentration 3.0 uM.
Receptor tyrosine-protein kinase erbB-4 (Homo sapiens), sequence (Q15303 whole entry): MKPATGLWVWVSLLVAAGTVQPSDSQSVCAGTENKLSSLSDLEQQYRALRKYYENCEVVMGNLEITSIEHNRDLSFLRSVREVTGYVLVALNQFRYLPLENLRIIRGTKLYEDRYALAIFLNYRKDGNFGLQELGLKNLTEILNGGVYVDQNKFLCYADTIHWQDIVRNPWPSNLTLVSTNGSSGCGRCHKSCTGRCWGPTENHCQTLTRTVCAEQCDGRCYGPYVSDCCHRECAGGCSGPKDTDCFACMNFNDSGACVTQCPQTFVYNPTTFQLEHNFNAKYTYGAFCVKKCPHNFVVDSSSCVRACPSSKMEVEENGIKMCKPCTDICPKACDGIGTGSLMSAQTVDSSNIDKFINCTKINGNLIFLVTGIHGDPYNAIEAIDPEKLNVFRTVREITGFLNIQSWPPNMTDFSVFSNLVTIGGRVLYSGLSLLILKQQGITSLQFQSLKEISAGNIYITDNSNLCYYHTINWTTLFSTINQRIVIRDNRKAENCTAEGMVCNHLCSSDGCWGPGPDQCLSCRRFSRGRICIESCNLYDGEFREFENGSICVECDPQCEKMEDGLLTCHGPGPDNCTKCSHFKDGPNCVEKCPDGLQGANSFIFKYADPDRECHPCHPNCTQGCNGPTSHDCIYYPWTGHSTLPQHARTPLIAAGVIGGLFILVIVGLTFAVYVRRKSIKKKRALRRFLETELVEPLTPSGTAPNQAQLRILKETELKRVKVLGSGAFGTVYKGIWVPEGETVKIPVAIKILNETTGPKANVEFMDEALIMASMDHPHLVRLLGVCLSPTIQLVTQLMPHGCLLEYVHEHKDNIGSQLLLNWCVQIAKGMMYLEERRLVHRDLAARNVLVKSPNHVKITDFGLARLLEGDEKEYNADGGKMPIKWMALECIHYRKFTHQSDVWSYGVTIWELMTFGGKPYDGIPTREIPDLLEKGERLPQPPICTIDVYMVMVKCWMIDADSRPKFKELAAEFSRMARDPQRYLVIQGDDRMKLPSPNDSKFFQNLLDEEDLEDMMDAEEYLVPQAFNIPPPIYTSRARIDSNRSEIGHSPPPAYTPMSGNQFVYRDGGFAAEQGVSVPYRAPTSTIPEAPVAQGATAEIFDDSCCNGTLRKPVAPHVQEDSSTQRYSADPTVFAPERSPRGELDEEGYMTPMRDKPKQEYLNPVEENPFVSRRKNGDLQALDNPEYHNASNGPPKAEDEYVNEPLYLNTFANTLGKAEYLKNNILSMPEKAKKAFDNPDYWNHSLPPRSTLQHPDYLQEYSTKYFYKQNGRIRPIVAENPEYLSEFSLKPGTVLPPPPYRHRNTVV

Mu-type opioid receptor (Homo sapiens), sequence (P35372 whole entry): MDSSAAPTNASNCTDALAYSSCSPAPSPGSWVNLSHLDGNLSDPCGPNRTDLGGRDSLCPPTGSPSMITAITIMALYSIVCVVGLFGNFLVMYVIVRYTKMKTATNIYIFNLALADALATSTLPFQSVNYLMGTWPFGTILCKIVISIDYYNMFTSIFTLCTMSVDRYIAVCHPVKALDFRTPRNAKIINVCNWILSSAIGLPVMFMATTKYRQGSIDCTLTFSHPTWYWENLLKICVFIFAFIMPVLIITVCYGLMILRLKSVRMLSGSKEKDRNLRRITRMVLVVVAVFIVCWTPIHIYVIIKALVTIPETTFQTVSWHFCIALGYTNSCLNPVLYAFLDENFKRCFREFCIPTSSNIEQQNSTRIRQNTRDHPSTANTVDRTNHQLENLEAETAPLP
3-phosphoinositide-dependent protein kinase 1 (Homo sapiens), sequence (O15530 whole entry, looked up): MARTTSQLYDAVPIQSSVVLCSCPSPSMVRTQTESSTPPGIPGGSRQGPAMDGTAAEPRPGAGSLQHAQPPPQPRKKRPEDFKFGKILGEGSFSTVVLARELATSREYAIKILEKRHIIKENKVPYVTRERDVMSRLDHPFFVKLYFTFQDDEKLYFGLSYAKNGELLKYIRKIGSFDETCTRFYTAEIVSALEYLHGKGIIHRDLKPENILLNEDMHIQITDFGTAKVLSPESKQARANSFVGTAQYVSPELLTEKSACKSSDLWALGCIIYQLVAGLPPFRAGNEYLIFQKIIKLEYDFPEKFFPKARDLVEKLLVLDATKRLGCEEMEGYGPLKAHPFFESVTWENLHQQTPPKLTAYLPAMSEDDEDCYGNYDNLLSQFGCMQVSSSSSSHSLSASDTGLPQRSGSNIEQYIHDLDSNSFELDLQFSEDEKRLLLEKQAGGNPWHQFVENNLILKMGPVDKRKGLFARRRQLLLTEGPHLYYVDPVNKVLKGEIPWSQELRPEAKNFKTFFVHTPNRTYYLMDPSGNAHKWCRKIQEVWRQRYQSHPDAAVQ
Vascular endothelial growth factor receptor 1 (Homo sapiens), sequence (P17948 whole entry): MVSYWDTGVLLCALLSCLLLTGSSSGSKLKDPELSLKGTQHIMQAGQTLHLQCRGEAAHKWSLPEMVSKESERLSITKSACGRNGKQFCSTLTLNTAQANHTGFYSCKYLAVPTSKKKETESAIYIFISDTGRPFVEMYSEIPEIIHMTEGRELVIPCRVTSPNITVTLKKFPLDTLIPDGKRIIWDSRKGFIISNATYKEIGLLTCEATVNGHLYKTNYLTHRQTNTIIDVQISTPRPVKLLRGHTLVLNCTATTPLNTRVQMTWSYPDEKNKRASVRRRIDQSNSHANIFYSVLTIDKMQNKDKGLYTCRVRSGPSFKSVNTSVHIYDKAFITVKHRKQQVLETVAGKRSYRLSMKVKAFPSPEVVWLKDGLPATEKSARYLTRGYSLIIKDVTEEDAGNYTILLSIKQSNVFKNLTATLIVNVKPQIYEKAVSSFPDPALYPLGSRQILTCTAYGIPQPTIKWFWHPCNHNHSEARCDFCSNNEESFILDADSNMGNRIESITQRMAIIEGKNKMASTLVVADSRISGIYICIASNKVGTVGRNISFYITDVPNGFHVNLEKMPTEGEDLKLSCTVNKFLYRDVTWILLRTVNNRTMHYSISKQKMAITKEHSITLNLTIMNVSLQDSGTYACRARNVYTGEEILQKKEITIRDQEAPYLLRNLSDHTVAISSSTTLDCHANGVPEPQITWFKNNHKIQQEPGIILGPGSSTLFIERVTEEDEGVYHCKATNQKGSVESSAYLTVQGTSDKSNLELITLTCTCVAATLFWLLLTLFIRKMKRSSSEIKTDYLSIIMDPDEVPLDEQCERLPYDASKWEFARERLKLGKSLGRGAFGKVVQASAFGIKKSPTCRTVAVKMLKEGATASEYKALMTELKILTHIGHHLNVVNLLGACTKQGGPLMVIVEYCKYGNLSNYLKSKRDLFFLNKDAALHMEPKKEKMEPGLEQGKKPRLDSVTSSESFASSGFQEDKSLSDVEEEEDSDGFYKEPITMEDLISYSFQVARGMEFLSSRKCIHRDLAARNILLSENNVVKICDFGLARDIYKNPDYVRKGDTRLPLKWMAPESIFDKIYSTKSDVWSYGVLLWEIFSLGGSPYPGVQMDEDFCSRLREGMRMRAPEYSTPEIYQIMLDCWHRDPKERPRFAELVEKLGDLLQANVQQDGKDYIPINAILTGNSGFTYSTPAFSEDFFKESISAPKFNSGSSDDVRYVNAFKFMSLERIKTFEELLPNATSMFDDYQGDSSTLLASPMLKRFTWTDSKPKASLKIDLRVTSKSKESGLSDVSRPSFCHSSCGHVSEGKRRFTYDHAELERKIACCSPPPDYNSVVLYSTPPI
Protein kinase C epsilon type (Homo sapiens), sequence (Q02156 whole entry): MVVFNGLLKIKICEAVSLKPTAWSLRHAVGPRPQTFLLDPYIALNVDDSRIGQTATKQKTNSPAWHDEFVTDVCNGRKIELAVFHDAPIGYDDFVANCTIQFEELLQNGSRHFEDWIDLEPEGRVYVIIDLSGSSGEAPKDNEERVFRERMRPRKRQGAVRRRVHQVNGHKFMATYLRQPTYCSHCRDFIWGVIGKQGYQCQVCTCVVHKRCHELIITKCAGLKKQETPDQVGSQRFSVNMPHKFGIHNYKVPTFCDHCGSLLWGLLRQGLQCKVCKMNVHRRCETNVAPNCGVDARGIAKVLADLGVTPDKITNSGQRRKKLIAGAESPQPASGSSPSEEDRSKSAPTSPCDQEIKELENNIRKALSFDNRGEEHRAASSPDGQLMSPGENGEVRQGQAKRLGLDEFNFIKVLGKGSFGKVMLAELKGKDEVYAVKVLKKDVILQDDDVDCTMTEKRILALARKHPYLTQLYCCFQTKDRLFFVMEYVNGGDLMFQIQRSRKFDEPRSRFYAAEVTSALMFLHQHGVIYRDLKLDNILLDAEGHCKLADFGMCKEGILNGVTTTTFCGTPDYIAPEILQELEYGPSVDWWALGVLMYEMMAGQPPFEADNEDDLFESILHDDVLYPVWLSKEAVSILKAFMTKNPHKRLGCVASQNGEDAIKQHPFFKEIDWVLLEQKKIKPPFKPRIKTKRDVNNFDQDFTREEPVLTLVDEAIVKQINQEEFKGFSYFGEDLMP
Histamine H4 receptor (Homo sapiens), sequence (Q9H3N8 whole entry): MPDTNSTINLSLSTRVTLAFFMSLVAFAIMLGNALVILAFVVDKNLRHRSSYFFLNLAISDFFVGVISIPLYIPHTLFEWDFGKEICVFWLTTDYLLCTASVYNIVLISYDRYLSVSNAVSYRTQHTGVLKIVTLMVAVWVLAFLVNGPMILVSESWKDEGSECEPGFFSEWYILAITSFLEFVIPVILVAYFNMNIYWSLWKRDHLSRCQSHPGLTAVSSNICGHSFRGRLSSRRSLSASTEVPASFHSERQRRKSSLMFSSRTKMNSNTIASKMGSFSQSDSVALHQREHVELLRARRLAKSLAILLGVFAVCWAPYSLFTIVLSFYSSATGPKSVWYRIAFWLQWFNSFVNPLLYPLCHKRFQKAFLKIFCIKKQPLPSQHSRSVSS

For `CN(C)C(=O)Cn1cc(-c2nc(C3(c4ccc(-c5cnc(N)nc5)cc4)CC3)no2)cn1` [BI 0153], the inhibition in data set [1] is -7.48%. Moreover, in data set [2], the residual activity was 90%.
Take `CN(C)C(=O)Cn1cc(-c2nc([C@@](C)(c3ccc(-c4cnc(N)nc4)cc3)C3CC3)no2)cn1` [BI 665915]: the activity at 10 µM in [3] is reported as 98% (not active). The residual activity in data set [4] was 103%; in data set [5], 95%; in data set [6], 100%; in data set [7] it was 97.5%; in [8], 97%; in data set [9], 109%. The residual activity was 97% in data set [10]; 89% in [11]; 90% in data set [12]; 100% in [13]; 36% in [14]; 108% in data set [15]. Further, the residual activity is 93% in data set [16] and 98.5% in [18]. The activity at 20 µM in data set [17] is recorded as 119% (not active).
